# Test results published in article PMC8371461 (Frontiers in Pharmacology, 2021).
# What was measured:
# CSNK2A2 = biological target: T1, CSNK2A2 (Homo sapiens, UniProt P19784); test: kinome scan; type: binding; settings: 10 µM
# T1 construct: purchased DiscoverX (KINOMEscan)
# [1] = biological target: T2, ABL1(M351T)-phosphorylated (Homo sapiens, UniProt P00519, M351T); test: kinome scan; type: binding; settings: 10 µM
# T2 construct: purchased DiscoverX (KINOMEscan)
# DDR2 = biological target: T3, DDR2 (Homo sapiens, UniProt Q16832); test: kinome scan; type: binding; settings: 10 µM
# T3 construct: purchased DiscoverX (KINOMEscan)
# NIM1 = biological target: T4, NIM1 (Homo sapiens, UniProt Q8IY84); test: kinome scan; type: binding; settings: 10 µM
# T4 construct: purchased DiscoverX (KINOMEscan)
# AURKC = biological target: T5, AURKC (Homo sapiens, UniProt Q9UQB9); test: kinome scan; type: binding; settings: 10 µM
# T5 construct: purchased DiscoverX (KINOMEscan)
# CDKL1 = biological target: T6, CDKL1 (Homo sapiens, UniProt Q00532); test: kinome scan; type: binding; settings: 10 µM
# T6 construct: purchased DiscoverX (KINOMEscan)
# FRK = biological target: T7, FRK (Homo sapiens, UniProt P42685); test: kinome scan; type: binding; settings: 10 µM
# T7 construct: purchased DiscoverX (KINOMEscan)
# MYLK = biological target: T8, MYLK (Homo sapiens, UniProt Q15746); test: kinome scan; type: binding; settings: 10 µM
# T8 construct: purchased DiscoverX (KINOMEscan)
# MAP3K3 = biological target: T9, MAP3K3 (Homo sapiens, UniProt Q99759); test: kinome scan; type: binding; settings: 10 µM
# T9 construct: purchased DiscoverX (KINOMEscan)
# ROS1 = biological target: T10, ROS1 (Homo sapiens, UniProt P08922); test: kinome scan; type: binding; settings: 10 µM
# T10 construct: purchased DiscoverX (KINOMEscan)
# PIP5K2C = biological target: T11, PIP5K2C (Homo sapiens, UniProt Q8TBX8); test: kinome scan; type: binding
# T11 construct: purchased DiscoverX (KINOMEscan)
# p38-delta = biological target: T12, p38-delta (Homo sapiens, UniProt O15264); test: kinome scan; type: binding; settings: 10 µM
# T12 construct: purchased DiscoverX (KINOMEscan)
# PIK3CA(E545A) = biological target: T13, PIK3CA(E545A) (Homo sapiens, UniProt P42336, E545A); test: kinome scan; type: binding; settings: 10 µM
# T13 construct: purchased DiscoverX (KINOMEscan)
# PFTAIRE2 = biological target: T14, PFTAIRE2 (Homo sapiens, UniProt Q96Q40); test: kinome scan; type: binding; settings: 10 µM
# T14 construct: purchased DiscoverX (KINOMEscan)
# [2] = biological target: T15, RPS6KA4(Kin.Dom.1-N-terminal) (Homo sapiens, UniProt O75676); test: kinome scan; type: binding; settings: 10 µM
# T15 construct: RPS6KA4(Kin.Dom.1-N-terminal); purchased DiscoverX (KINOMEscan)
# PKAC-alpha = biological target: T16, PKAC-alpha (Homo sapiens, UniProt P17612); test: kinome scan; type: binding; settings: 10 µM
# T16 construct: purchased DiscoverX (KINOMEscan)
# DYRK1A = biological target: T17, DYRK1A (Homo sapiens, UniProt Q13627); test: kinome scan; type: binding; settings: 10 µM
# T17 construct: purchased DiscoverX (KINOMEscan)
# NEK11 = biological target: T18, NEK11 (Homo sapiens, UniProt Q8NG66); test: kinome scan; type: binding; settings: 10 µM
# T18 construct: purchased DiscoverX (KINOMEscan)
# RET(V804M) = biological target: T19, RET(V804M) (Homo sapiens, UniProt P07949, V804M); test: kinome scan; type: binding; settings: 10 µM
# T19 construct: purchased DiscoverX (KINOMEscan)
# CDK4-cyclinD3 = biological target: T20, CDK4-cyclinD3 (Homo sapiens, UniProt P11802); test: kinome scan; type: binding; settings: 10 µM
# T20 construct: purchased DiscoverX (KINOMEscan)
# ERK = ERK phosphorylation by Western blotting; type: cell-based, mouse; settings: PSC, data not shown
# Excerpt: It is noteworthy that, in parallel, a regulation of the ERK pathway was not confirmed at the protein level, assessed by the study of ERK phosphorylation by Western blotting (data not shown). The effects of the drug on proliferation or differentiation was next investigated in quantitative assays. The rate of cell proliferation of the PSC, assessed during five days by quantification of intracellular ATP, was not affected by the drug (Figure 2A). The CGR8 PSC line was stably transduced with a dual promoter/reporter gene construct containing a ubiquitous promoter (EF1αS) controlling the expression of Renilla Luciferase (RLuc) and also an early neural-specific promoter (Tα1), controlling the expression of Firefly Luciferase (FLuc). Then, neural differentiation was quantified by the normalized ratio between FLuc and RLuc ([Suter et al., 2009]). […] After 72 h, the cells were lysed for RLuc and FLuc luminescence measurement in the presence of their substrates, each signal being normalized with the signal obtained with the vehicle alone (DMSO).
# MAP4K3 = biological target: T21, MAP4K3 (Homo sapiens, UniProt Q8IVH8); test: kinome scan; type: binding; settings: 10 µM
# T21 construct: purchased DiscoverX (KINOMEscan)
# STK36 = biological target: T22, STK36 (Homo sapiens, UniProt Q9NRP7); test: kinome scan; type: binding; settings: 10 µM
# T22 construct: purchased DiscoverX (KINOMEscan)
# CSNK1D = biological target: T23, CSNK1D (Homo sapiens, UniProt P48730); test: kinome scan; type: binding; settings: 10 µM
# T23 construct: purchased DiscoverX (KINOMEscan)
# CDC2L2 = biological target: T24, CDC2L2 (Homo sapiens, UniProt Q9UQ88); test: kinome scan; type: binding; settings: 10 µM
# T24 construct: purchased DiscoverX (KINOMEscan)
# CLK4 = biological target: T25, CLK4 (Homo sapiens, UniProt Q9HAZ1); test: kinome scan; type: binding; settings: 10 µM
# T25 construct: purchased DiscoverX (KINOMEscan)
# PIM3 = biological target: T26, PIM3 (Homo sapiens, UniProt Q86V86); test: kinome scan; type: binding; settings: 10 µM
# T26 construct: purchased DiscoverX (KINOMEscan)
# GRK7 = biological target: T27, GRK7 (Homo sapiens, UniProt Q8WTQ7); test: kinome scan; type: binding; settings: 10 µM
# T27 construct: purchased DiscoverX (KINOMEscan)
# FES = biological target: T28, FES (Homo sapiens, UniProt P07332); test: kinome scan; type: binding; settings: 10 µM
# T28 construct: purchased DiscoverX (KINOMEscan)
# WEE1 = biological target: T29, WEE1 (Homo sapiens, UniProt P30291); test: kinome scan; type: binding; settings: 10 µM
# T29 construct: purchased DiscoverX (KINOMEscan)
# ULK2 = biological target: T30, ULK2 (Homo sapiens, UniProt Q8IYT8); test: kinome scan; type: binding; settings: 10 µM
# T30 construct: purchased DiscoverX (KINOMEscan)
# TSSK1B = biological target: T31, TSSK1B (Homo sapiens, UniProt Q9BXA7); test: kinome scan; type: binding; settings: 10 µM
# T31 construct: purchased DiscoverX (KINOMEscan)
# GCN2(Kin.Dom.2S808G) = biological target: T32, GCN2(Kin.Dom.2S808G) (Homo sapiens, UniProt Q9P2K8, S808G); test: kinome scan; type: binding; settings: 10 µM
# T32 construct: GCN2(Kin.Dom.2S808G); purchased DiscoverX (KINOMEscan)
# CTK = biological target: T33, CTK (Homo sapiens, UniProt P42679); test: kinome scan; type: binding; settings: 10 µM
# T33 construct: purchased DiscoverX (KINOMEscan)
# MARK3 = biological target: T34, MARK3 (Homo sapiens, UniProt P27448); test: kinome scan; type: binding; settings: 10 µM
# T34 construct: purchased DiscoverX (KINOMEscan)
# WEE2 = biological target: T35, WEE2 (Homo sapiens, UniProt P0C1S8); test: kinome scan; type: binding; settings: 10 µM
# T35 construct: purchased DiscoverX (KINOMEscan)
# PIK3CA(Q546K) = biological target: T36, PIK3CA(Q546K) (Homo sapiens, UniProt P42336, Q546K); test: kinome scan; type: binding; settings: 10 µM
# T36 construct: purchased DiscoverX (KINOMEscan)
# T36 sequence (P42336 whole entry Q546K): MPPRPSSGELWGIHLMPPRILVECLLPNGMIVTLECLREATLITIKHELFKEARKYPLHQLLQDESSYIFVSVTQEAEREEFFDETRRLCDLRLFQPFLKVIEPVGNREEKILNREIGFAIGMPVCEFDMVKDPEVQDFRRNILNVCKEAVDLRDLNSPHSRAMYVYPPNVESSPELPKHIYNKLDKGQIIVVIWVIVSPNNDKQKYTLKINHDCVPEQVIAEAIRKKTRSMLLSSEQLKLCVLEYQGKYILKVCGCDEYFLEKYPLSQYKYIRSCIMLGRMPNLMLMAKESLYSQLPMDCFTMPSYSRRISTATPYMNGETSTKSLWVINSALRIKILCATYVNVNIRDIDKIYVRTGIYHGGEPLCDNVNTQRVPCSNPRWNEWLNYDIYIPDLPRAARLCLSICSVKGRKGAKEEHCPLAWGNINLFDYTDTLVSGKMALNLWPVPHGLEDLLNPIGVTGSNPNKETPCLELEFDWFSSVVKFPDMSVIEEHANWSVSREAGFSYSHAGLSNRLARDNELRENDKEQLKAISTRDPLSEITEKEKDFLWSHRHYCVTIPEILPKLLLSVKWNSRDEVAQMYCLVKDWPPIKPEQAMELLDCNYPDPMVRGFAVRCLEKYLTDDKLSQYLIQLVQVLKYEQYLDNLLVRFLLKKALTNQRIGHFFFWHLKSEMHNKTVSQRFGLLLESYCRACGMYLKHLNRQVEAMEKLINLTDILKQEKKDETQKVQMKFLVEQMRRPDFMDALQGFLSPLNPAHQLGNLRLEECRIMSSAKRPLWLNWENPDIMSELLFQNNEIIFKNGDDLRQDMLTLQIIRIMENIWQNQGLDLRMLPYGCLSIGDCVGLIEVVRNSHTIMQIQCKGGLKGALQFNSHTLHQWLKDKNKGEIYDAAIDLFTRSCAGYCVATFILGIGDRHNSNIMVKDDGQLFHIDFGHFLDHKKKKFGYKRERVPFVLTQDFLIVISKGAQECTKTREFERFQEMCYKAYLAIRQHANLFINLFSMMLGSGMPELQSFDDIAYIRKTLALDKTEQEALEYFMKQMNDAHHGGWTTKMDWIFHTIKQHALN
# T11 sequence (Q8TBX8 whole entry): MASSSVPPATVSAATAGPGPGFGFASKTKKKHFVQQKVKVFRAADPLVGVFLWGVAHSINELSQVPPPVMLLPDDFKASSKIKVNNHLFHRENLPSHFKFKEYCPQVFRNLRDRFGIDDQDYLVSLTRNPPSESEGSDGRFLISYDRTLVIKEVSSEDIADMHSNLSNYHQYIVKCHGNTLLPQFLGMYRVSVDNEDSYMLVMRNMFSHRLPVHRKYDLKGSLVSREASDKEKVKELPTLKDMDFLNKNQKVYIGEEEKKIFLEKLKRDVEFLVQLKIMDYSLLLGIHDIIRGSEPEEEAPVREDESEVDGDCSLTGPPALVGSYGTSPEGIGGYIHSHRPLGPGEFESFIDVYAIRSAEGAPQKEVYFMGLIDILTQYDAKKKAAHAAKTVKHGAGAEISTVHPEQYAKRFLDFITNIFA
# T10 sequence (P08922 28-2347): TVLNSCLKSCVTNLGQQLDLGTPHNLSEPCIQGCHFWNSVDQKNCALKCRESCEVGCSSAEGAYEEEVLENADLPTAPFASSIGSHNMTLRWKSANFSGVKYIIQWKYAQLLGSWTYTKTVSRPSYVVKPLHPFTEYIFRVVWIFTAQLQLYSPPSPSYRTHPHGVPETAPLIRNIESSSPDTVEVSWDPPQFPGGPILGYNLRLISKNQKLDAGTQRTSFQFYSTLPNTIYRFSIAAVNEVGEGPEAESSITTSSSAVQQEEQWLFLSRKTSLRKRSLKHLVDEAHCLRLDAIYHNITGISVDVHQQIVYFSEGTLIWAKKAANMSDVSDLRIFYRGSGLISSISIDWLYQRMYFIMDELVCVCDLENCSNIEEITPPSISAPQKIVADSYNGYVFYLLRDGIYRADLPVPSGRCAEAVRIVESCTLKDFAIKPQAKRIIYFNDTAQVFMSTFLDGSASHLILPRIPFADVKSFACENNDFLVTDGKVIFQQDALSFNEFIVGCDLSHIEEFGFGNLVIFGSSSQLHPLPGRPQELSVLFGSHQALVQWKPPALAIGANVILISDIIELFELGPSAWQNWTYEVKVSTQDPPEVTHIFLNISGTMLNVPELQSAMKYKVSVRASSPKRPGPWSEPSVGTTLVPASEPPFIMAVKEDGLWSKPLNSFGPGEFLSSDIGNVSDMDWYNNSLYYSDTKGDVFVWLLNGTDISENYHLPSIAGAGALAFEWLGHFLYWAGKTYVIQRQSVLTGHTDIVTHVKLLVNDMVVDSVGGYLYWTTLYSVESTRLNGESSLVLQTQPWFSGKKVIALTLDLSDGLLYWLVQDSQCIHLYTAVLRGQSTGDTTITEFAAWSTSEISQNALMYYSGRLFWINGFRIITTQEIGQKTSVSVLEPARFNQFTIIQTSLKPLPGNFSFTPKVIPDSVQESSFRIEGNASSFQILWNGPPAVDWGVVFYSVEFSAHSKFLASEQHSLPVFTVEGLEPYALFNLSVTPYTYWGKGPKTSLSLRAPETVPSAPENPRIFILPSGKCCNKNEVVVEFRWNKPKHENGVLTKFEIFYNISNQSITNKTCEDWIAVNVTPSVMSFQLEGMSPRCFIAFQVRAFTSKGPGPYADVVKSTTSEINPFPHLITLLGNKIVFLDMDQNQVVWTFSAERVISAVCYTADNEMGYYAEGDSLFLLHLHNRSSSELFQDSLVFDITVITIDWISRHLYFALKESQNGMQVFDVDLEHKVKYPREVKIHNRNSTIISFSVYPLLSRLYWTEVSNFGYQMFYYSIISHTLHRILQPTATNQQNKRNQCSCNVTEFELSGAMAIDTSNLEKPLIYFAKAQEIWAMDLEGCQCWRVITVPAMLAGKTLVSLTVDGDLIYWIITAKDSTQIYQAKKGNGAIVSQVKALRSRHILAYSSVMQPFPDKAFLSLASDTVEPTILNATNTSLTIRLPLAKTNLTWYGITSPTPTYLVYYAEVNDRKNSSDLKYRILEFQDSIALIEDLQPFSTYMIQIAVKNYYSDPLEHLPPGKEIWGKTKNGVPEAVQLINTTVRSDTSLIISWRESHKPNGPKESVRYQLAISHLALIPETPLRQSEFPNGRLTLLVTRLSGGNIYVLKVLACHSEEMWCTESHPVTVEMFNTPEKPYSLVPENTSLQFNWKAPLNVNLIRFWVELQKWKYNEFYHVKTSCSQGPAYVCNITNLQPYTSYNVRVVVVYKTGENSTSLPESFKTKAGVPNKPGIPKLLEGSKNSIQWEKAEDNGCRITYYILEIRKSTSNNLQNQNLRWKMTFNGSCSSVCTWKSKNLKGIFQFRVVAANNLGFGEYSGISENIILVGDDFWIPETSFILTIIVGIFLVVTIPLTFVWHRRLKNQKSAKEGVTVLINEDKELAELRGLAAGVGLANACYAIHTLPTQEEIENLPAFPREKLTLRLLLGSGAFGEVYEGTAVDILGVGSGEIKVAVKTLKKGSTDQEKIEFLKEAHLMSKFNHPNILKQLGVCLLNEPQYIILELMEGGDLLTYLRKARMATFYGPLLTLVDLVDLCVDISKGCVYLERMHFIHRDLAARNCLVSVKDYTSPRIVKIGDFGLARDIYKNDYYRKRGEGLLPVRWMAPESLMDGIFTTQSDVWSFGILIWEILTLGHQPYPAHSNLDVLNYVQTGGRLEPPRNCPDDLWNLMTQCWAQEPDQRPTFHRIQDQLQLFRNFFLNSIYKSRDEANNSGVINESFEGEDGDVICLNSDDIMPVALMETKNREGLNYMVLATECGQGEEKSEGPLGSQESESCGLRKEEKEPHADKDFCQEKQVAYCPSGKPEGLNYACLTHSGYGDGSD
# T18 sequence (Q8NG66 whole entry): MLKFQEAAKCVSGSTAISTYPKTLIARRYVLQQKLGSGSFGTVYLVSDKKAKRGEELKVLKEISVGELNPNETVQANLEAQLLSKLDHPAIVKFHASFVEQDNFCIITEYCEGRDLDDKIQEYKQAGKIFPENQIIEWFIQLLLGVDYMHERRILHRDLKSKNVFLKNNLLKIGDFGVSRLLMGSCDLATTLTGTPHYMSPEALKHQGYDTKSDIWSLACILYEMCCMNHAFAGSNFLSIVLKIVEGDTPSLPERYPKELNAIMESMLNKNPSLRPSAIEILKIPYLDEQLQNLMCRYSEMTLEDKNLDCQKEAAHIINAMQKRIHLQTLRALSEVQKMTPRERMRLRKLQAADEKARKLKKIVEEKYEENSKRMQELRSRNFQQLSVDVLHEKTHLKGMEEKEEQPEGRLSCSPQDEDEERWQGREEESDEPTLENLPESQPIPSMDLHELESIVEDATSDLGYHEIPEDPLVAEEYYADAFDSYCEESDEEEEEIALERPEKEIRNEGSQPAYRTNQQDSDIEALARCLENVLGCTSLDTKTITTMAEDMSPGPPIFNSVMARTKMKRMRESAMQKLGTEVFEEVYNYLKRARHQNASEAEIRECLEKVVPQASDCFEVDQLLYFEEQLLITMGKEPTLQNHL
# T13 sequence (P42336 whole entry E545A): as the sequence (P42336 whole entry Q546K) above, with E545A, K546Q counted along it
# T9 sequence (Q99759 whole entry): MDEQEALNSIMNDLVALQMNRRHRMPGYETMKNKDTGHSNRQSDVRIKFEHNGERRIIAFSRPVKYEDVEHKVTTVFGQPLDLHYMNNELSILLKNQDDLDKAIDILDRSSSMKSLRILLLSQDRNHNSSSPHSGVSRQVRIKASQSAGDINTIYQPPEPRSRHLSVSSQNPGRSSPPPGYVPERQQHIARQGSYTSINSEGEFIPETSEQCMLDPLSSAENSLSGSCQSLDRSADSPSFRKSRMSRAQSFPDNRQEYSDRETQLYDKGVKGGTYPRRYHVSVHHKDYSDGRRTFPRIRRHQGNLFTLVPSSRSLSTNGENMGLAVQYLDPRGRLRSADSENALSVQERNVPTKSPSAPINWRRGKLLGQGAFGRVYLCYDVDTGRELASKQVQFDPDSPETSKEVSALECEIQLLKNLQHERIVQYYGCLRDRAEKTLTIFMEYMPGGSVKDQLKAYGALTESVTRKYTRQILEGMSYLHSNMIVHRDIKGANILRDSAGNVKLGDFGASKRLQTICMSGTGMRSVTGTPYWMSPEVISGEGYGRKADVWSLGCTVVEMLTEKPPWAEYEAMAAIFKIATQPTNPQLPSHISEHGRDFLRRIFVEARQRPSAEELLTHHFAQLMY
smiles,measurement,setting,value
"Nc1ccc(N=Nc2ccccc2)c(N)n1 [phenazopyridine, 2,6-diamino-3-(phenylazo)pyridine]",kinase inhibition,CSNK2A2,63
same,kinase inhibition,[1],85
same,kinase inhibition,DDR2,100
same,kinase inhibition,NIM1,100
same,kinase inhibition,AURKC,68
same,kinase inhibition,CDKL1,100
same,remaining binding (% of control),FRK,100
same,kinase inhibition,MYLK,100
same,kinase inhibition,MAP3K3,89
same,kinase inhibition,ROS1,100
same,remaining binding (% of control),PIP5K2C; 10 µM,2.3
same,remaining binding at 10 µM,PIP5K2C; read-out: % Of control,2.3%
same,kinase inhibition,p38-delta,89
same,kinase inhibition,PIK3CA(E545A),100
same,kinase inhibition,PFTAIRE2,96
same,kinase inhibition,[2],89
same,kinase inhibition,PKAC-alpha,100
same,remaining binding (% of control),DYRK1A,73
same,kinase inhibition,NEK11,100
same,remaining binding (% of control),RET(V804M),100
same,kinase inhibition,CDK4-cyclinD3,100
same,regulation of the ERK pathway (ERK phosphorylation),ERK,not confirmed
same,kinase inhibition,MAP4K3,74
same,kinase inhibition,STK36,99
same,kinase inhibition,CSNK1D,50
same,kinase inhibition,CDC2L2,84
same,kinase inhibition,CLK4,72
same,kinase inhibition,PIM3,100
same,kinase inhibition,GRK7,100
same,kinase inhibition,FES,100
same,kinase inhibition,WEE1,100
same,kinase inhibition,ULK2,96
same,kinase inhibition,TSSK1B,87
same,remaining binding (% of control),GCN2(Kin.Dom.2S808G),100
same,kinase inhibition,CTK,98
same,kinase inhibition,MARK3,100
same,kinase inhibition,WEE2,100
same,kinase inhibition,PIK3CA(Q546K),100
